{
  "source": "paper PMC10817917",
  "about": "“Alkyl deoxyglycoside-polymyxin combinations against critical priority carbapenem-resistant gram-negative bacteria” (Scientific Reports, 2024)",
  "key": {"[1]": {"test_system": "E. coli NCTC 13846", "test": "Broth microdilution MIC/MBC, glycosides with or without polymyxins", "format": "cell-based, Escherichia coli", "conditions": "strain B"}, "[2]": {"test_system": "K. pneumoniae CQ1942", "test": "Broth microdilution MIC, glycosides with or without polymyxins", "format": "cell-based, Klebsiella pneumoniae", "conditions": "for MIC: Klebsiella pneumoniae, CQ1942"}, "[3]": {"test_system": "HEK-293T cells", "test": "Resazurin cell viability assay (cytotoxicity)", "format": "cell-based, human", "conditions": "Homo sapiens, HEK-293T, 72 h, read-out: IC50", "procedure,_shortened": "(§1)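 HEK-293T and Caco-2 cells (1.5 × 10^4/well, RPMI 1640 with 10% FBS) exposed 72 h at 37 °C to glycosides at final 100 to 10 µM, alone or with PMB or colistin at final 0.5, 0.25 or 0.125 µg/mL; max DMSO 0.33%. Resazurin added 4 h, read 570/600 nm; IC50 from dose-response fits, mean ± SD of three replicates.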"}, "[4]": {"test_system": "Caco-2 cells", "test": "Resazurin cell viability assay (cytotoxicity)", "format": "cell-based, human", "conditions": "Homo sapiens, Caco-2, 72 h, read-out: IC50", "procedure,_shortened": "as §1"}, "[5]": {"test_system": "Bacillus anthracis (Sterne, ovine and pathogenic forms), Enterococcus faecalis and Bacillus cereus", "conditions": "Gram-positive bacteria; cited from earlier work"}, "[6]": {"test_system": "E. coli ATCC 25922", "test": "Broth microdilution MIC/MBC, glycosides with or without polymyxins", "format": "cell-based, Escherichia coli", "conditions": "for MIC: Escherichia coli, ATCC25922"}, "[7]": {"test_system": "A. baumannii CQ4322", "test": "Broth microdilution MIC/MBC, glycosides with or without polymyxins", "format": "cell-based, Acinetobacter baumannii", "conditions": "for MIC: Acinetobacter baumannii, CQ4322"}, "[8]": {"conditions": "alone, read-out: MICA (MIC of each compound individually)"}, "[9]": {"conditions": "combination with the lowest FICI"}, "[10]": {"conditions": "compound + colistin, lowest FICI"}, "[11]": {"conditions": "tested alone (no polymyxin adjuvant)"}},
  "note": "Read-outs that look alike come from different tables or passages of the source.",
  "data": [
    {"smiles": "CCCCCCCCCCCCO[C@@H]1C[C@@H](O)[C@H](O)[C@@H](CO)O1", "note": "[Compound 4, dodecyl 2-deoxy-α-D-arabino-hexopyranoside]", "values": [
      {"measurement": "MIC of colistin in combination with the compound", "setting": "[1]; Cpd conc. 0.4 μg/mL", "result": "> 0.5", "unit": "µg/mL"},
      {"measurement": "MIC of colistin in combination with the compound", "setting": "[1]; Cpd conc. 0.8 μg/mL", "result": "> 0.5", "unit": "µg/mL"},
      {"measurement": "MIC of colistin in combination with the compound", "setting": "[1]; Cpd conc. 3.125 μg/mL", "result": "> 0.5", "unit": "µg/mL"},
      {"measurement": "MIC of colistin in combination with the compound", "setting": "[1]; Cpd conc. 6.25 μg/mL", "result": "> 0.5", "unit": "µg/mL"},
      {"measurement": "MIC of colistin in combination with the compound", "setting": "[1]; Cpd conc. 12.5 μg/mL", "result": "> 0.5", "unit": "µg/mL"},
      {"measurement": "MIC of colistin in combination with the compound", "setting": "[1]; Cpd conc. […]", "result": "> 0.5", "unit": "µg/mL"},
      {"measurement": "MIC", "setting": "[1]; Escherichia coli, NCTC13846, agent alone, no adjuvant (polymyxin conc. 0), read-out: MIC", "result": "> 100", "unit": "µg/mL"},
      {"measurement": "MIC of compound in combination with PMB", "setting": "[1]; PMB 0.25 μg/mL", "result": "> 100", "unit": "µg/mL"},
      {"measurement": "MIC of compound in combination with PMB", "setting": "[1]; PMB 0.5 μg/mL", "result": "> 100", "unit": "µg/mL"},
      {"measurement": "MIC of compound in combination with colistin", "setting": "[1]; colistin 0.25 μg/mL", "result": "> 100", "unit": "µg/mL"},
      {"measurement": "MIC of compound in combination with colistin", "setting": "[1]; colistin 0.5 μg/mL", "result": "> 100", "unit": "µg/mL"},
      {"measurement": "MIC of colistin in combination with the compound", "setting": "[2]; Cpd conc. 0.4 μg/mL, strain E", "result": 0.5, "unit": "µg/mL"},
      {"measurement": "MIC of colistin in combination with the compound", "setting": "[2]; Cpd conc. 0.8 μg/mL, strain E", "result": 0.5, "unit": "µg/mL"},
      {"measurement": "MIC of colistin in combination with the compound", "setting": "[2]; Cpd conc. 3.125 μg/mL, strain E", "result": 0.5, "unit": "µg/mL"},
      {"measurement": "MIC of colistin in combination with the compound", "setting": "[2]; Cpd conc. 6.25 μg/mL, strain E", "result": 0.5, "unit": "µg/mL"},
      {"measurement": "MIC of colistin in combination with the compound", "setting": "[2]; Cpd conc. 12.5 μg/mL, strain E", "result": 0.5, "unit": "µg/mL"},
      {"measurement": "MIC of colistin in combination with the compound", "setting": "[2]; Cpd conc. […], strain E", "result": 0.5, "unit": "µg/mL"},
      {"measurement": "MIC", "setting": "[2]; agent alone, no adjuvant (polymyxin conc. 0), strain E, read-out: MIC", "result": "> 100", "unit": "µg/mL"},
      {"measurement": "MIC", "setting": "[2]; [8]", "result": "> 100", "unit": "µg/mL"},
      {"measurement": "MIC of compound in combination with PMB", "setting": "[2]; PMB 0.25 μg/mL, strain E", "result": "> 100", "unit": "µg/mL"},
      {"measurement": "MIC of compound in combination with PMB", "setting": "[2]; PMB 0.5 μg/mL, strain E", "result": 1.6, "unit": "µg/mL"},
      {"measurement": "MIC of compound in combination with colistin", "setting": "[2]; colistin 0.25 μg/mL, strain E", "result": "> 100", "unit": "µg/mL"},
      {"measurement": "MIC of compound in combination with colistin", "setting": "[2]; colistin 0.5 μg/mL, strain E", "result": "≤ 0.1", "unit": "µg/mL"},
      {"measurement": "MICA(A + B) (MIC of compound in combination with colistin)", "setting": "[2]; [9]", "result": 0.4, "unit": "µg/mL"},
      {"measurement": "MICB(A + B) (MIC of colistin in combination with compound)", "setting": "[2]; [9]", "result": 0.5, "unit": "µg/mL"},
      {"measurement": "Interpretation (of FICI)", "setting": "[2]; compound + colistin", "result": "Indifferent (1.0 to 4.0 were indifferent)"},
      {"measurement": "FICI", "setting": "[2]; [10]", "result": 1.002},
      {"measurement": "IC50", "setting": "[3]; Colistin 0.5 μg/mL", "result": "> 100", "unit": "µM"},
      {"measurement": "IC50", "setting": "[3]; No polymyxin", "result": "> 100", "unit": "µM"},
      {"measurement": "IC50", "setting": "[3]; PMB 0.5 μg/mL", "result": "> 100", "unit": "µM"},
      {"measurement": "IC50", "setting": "[3]; [11]", "result": "> 33", "unit": "µg/mL"},
      {"measurement": "IC50", "setting": "[4]; Colistin 0.5 μg/mL", "result": "> 100", "unit": "µM"},
      {"measurement": "IC50", "setting": "[4]; No polymyxin", "result": "> 100", "unit": "µM"},
      {"measurement": "IC50", "setting": "[4]; [11]", "result": "> 33", "unit": "µg/mL"},
      {"measurement": "MIC", "setting": "[5]", "result": "12 to 386", "unit": "µM"},
      {"measurement": "MIC of colistin in combination with the compound", "setting": "[6]; Cpd conc. 0.4 μg/mL, strain A", "result": 0.5, "unit": "µg/mL"},
      {"measurement": "MIC of colistin in combination with the compound", "setting": "[6]; Cpd conc. 0.8 μg/mL, strain A", "result": 0.5, "unit": "µg/mL"},
      {"measurement": "MIC of colistin in combination with the compound", "setting": "[6]; Cpd conc. 3.125 μg/mL, strain A", "result": 0.5, "unit": "µg/mL"},
      {"measurement": "MIC of colistin in combination with the compound", "setting": "[6]; Cpd conc. 6.25 μg/mL, strain A", "result": 0.5, "unit": "µg/mL"},
      {"measurement": "MIC of colistin in combination with the compound", "setting": "[6]; Cpd conc. 12.5 μg/mL, strain A", "result": 0.5, "unit": "µg/mL"},
      {"measurement": "MIC of colistin in combination with the compound", "setting": "[6]; Cpd conc. […], strain A", "result": 0.5, "unit": "µg/mL"},
      {"measurement": "MIC", "setting": "[6]; agent alone, no adjuvant (polymyxin conc. 0), strain A, read-out: MIC", "result": "> 100", "unit": "µg/mL"},
      {"measurement": "MIC", "setting": "[6]; [8]", "result": "> 100", "unit": "µg/mL"},
      {"measurement": "MIC of compound in combination with PMB", "setting": "[6]; PMB 0.25 μg/mL, strain A", "result": "> 100", "unit": "µg/mL"},
      {"measurement": "MIC of compound in combination with PMB", "setting": "[6]; PMB 0.5 μg/mL, strain A", "result": "≤ 0.1", "unit": "µg/mL"},
      {"measurement": "MIC of compound in combination with colistin", "setting": "[6]; colistin 0.5 μg/mL, strain A", "result": "≤ 0.1", "unit": "µg/mL"},
      {"measurement": "MICA(A + B) (MIC of compound in combination with colistin)", "setting": "[6]; [9]", "result": 0.4, "unit": "µg/mL"},
      {"measurement": "MICB(A + B) (MIC of colistin in combination with compound)", "setting": "[6]; [9]", "result": 0.5, "unit": "µg/mL"},
      {"measurement": "Interpretation (of FICI)", "setting": "[6]; compound + colistin", "result": "Indifferent (1.0 to 4.0 were indifferent)"},
      {"measurement": "FICI", "setting": "[6]; [10]", "result": 1.002},
      {"measurement": "MIC", "setting": "[7]; agent alone, no adjuvant (polymyxin conc. 0), strain G, read-out: MIC", "result": "> 100", "unit": "µg/mL"},
      {"measurement": "MIC", "setting": "[7]; [8]", "result": "> 100", "unit": "µg/mL"},
      {"measurement": "MIC of colistin in combination with the compound", "setting": "[7]; Cpd conc. 0.4 μg/mL, strain G", "result": 0.5, "unit": "µg/mL"},
      {"measurement": "MIC of colistin in combination with the compound", "setting": "[7]; Cpd conc. 0.8 μg/mL, strain G", "result": 0.5, "unit": "µg/mL"},
      {"measurement": "MIC of colistin in combination with the compound", "setting": "[7]; Cpd conc. 3.125 μg/mL, strain G", "result": 0.5, "unit": "µg/mL"},
      {"measurement": "MIC of colistin in combination with the compound", "setting": "[7]; Cpd conc. 6.25 μg/mL, strain G", "result": 0.5, "unit": "µg/mL"},
      {"measurement": "MIC of colistin in combination with the compound", "setting": "[7]; Cpd conc. 12.5 μg/mL, strain G", "result": 0.5, "unit": "µg/mL"},
      {"measurement": "MIC of colistin in combination with the compound", "setting": "[7]; Cpd conc. […], strain G", "result": 0.5, "unit": "µg/mL"},
      {"measurement": "MIC of compound in combination with PMB", "setting": "[7]; PMB 0.25 μg/mL, strain G", "result": "> 100", "unit": "µg/mL"},
      {"measurement": "MIC of compound in combination with colistin", "setting": "[7]; colistin 0.25 μg/mL, strain G", "result": "> 100", "unit": "µg/mL"},
      {"measurement": "MIC of compound in combination with colistin", "setting": "[7]; colistin 0.5 μg/mL, strain G", "result": "≤ 0.1", "unit": "µg/mL"},
      {"measurement": "MICA(A + B) (MIC of compound in combination with colistin)", "setting": "[7]; [9]", "result": 0.4, "unit": "µg/mL"},
      {"measurement": "MICB(A + B) (MIC of colistin in combination with compound)", "setting": "[7]; [9]", "result": 0.5, "unit": "µg/mL"},
      {"measurement": "Interpretation (of FICI)", "setting": "[7]; compound + colistin", "result": "Indifferent (1.0 to 4.0 were indifferent)"},
      {"measurement": "FICI", "setting": "[7]; [10]", "result": 1.002}
    ]}
  ]
}
